We go through one sequence from paper PMC7913925, “Design and Evaluation of a Polypeptide That Mimics the Integrin Binding Site for EDA Fibronectin to Block Profibrotic Cell Activity” (International Journal of Molecular Sciences, 2021).

Bridges are numbered along the chain shown (N, C = ends). Where no end group is shown, it is not given here.

One series deals with pro-MMP9. The series is described as follows: Gelatinase zymography pro-MMP9. Format: cell-based, mouse. The conditions noted are these: 48 h, TGF-β1 10 ng/mL, AF38Pep 10 µg/mL, conditioned medium. Here is the method:
Conditioned media were collected from cells incubated with serum-free medium (SFM) alone, SFM containing 10 ng/mL TGF-β1, SFM containing 10 µg/mL AF38Pep, or SFM containing both 10 ng/mL TGF-β1 and 10 µg/mL AF38Pep. Conditioned medium was concentrated 10× by filtrating spin columns (Amicon Ultra-4 10 kDa MWCO, Merck Millipore) and protein was quantified by Micro BCA Protein Assay Kit (Thermo Fisher Scientific). A 1.5 mm thick 10% nonreducing acrylamide gel containing gelatin was prepared and 10 µg of sample in 5 × nonreducing buffer was loaded into the gel lanes. The gel was run at 100 V until the protein entered the stacking gel layer, then the voltage was increased to 150 V until the marker achieved resolved band separation. The gels were then washed twice for 30 min using wash buffer to remove SDS and renature the enzymes. Gels were further rinsed for 5–10 min in incubation buffer at 37 °C with agitation to activate the gelatinase reaction. Fresh incubation buffer was added, and the gels were incubated overnight at 37 °C. Gels were stained with staining solution containing Coomassie blue for between 30 min to 1 h, before rinsing with ddH2O and subsequent incubation with de-stain solution until bands could be observed. The gels were transferred to 2% acetic acid and rehydrated overnight for imaging by scanner.

Series [1] has as its system ERK1/2 in NIH/3T3 fibroblasts. The series is described as follows: Western blot ERK1/2 phosphorylation. Format: cell-based, mouse. The conditions noted are these: TGF-β1 10 ng/mL, AF38Pep 10 µg/mL. How it is done:
(§1) Total protein was extracted from cells in RIPA lysis buffer containing 1% protease inhibitor cocktail, 1% phenylmethylsulfonyl fluoride, and 1% sodium orthovanadate (Santa Cruz Biotechnology, Santa Cruz, CA, USA). Protein was quantified by Micro BCA Protein Assay Kit (Thermo Fisher Scientific) before 7.5% SDS-PAGE and transfer to nitrocellulose. Membranes were blocked with 5% bovine serum albumin (BSA; Sigma-Aldrich)/0.5% Tween-20 (Sigma-Aldrich)/PBS for 1 h, RT, followed by incubation with primary antibodies diluted in 1% BSA/0.1% Tween-20/PBS, overnight at 4 °C. Primary antibodies were: anti-phosphoY204/Y187 ERK1/2 (1:1000); anti-ERK1/2 (1:1000); anti-phosphoY861 FAK (1:1000); anti-FAK (1:2000). Immunoblotting for anti-GAPDH (1:2500) was used as a protein loading control. Following wash steps, membranes were incubated in goat anti-rabbit IgG H&L secondary antibody (horseradish peroxidase, HRP conjugate, […]) (Abcam; 1:5000 dilution, 1% BSA/0.1% Tween-20/PBS). Detection was performed using Immobilon reagent (Merck Millipore, Burlington, MA, USA) and imaged using a Tanon 5500 Chemiluminescent Imaging System (Tanon, Shanghai, China).
(In general: Immunoblotting shows a protein as a band on a membrane.)

A further series deals with VCAM1–ITGA4 interaction. Description: Co-IP of VCAM1 with ITGA4. The series is classed as cell-based. The conditions noted are these: 48 h, Co-IP with anti-ITGA4. How it is done: as §1
(§2) A volume of 25 µg total protein from cell lysate in nondenaturing lysis buffer containing protease inhibitors was immunoprecipitated (IP) using anti-ITGA4 antibodies linked to protein A/G sepharose beads (Abcam). […]

The test system of another series is OPN–ITGA4 interaction. Description: Co-IP of OPN with ITGA4. Format: cell-based. The following applies: 48 h, Co-IP with anti-ITGA4. How it is done: as §1, §2
Series [2] deals with FN-RGD (RGD motif of fibronectin) (Homo sapiens, UniProt P02751). Description: Isothermal calorimetry, AF38Pep with FN-RGD. The series is classed as binding. The conditions noted are these: 25 °C, pH 7. How it is done:
(§3) Custom designed peptides were resuspended in sterile-filtered HEPES buffered saline (140 mM NaCl, 1.5 mM Na2HPO4, 50 mM HEPES; pH 7). The larger EDA-FN binding peptide was diluted to 15 µM, degassed and added to the calorimetry chamber well. Three smaller test peptides (fibronectin EDA-peptide, FN-EDA; fibronectin RGD-peptide, FN-RGD and collagen I RGD-peptide, COL-RGD) were diluted to 300 µM, degassed and each was separately loaded into the calorimetry injection needle. The chamber well temperature was kept consistent at 25 °C. Blank buffer was used to replace either the well peptide or the injection needle peptide to account for background heat generation. Isothermal titration calorimetry was performed using a MicroCal iTC200 (Malvern Panalytical, Malvern, UK) and dissociation constant (KD) and association constant (KA) were calculated using the one set of sites model fitting (with number of binding sites assumed to be 1) in MicroCal Origin Software v8.5 (Malvern Panalytical).
Background: ITC needs no label: the signal is the heat of the interaction.

Series [3] concerns the target FN-EDA (peptide sharing sequence with the C-C′ loop of EDA-FN) (Homo sapiens, UniProt P02751). The series is described as follows: Isothermal calorimetry, AF38Pep with FN-EDA. Format: binding. The conditions noted are these: 25 °C, pH 7. Here is the method: as §3
In series [4] the test system is mouse NIH/3T3 dermal fibroblast cells. The series is described as follows: Cytotoxicity/proliferation assay (CCK-8) NIH/3T3. The series is classed as cell-based. The following applies: TGF-β1 stimulated NIH/3T3, over 72 h. Here is the method:
HFL1 cells were cultured in Kaighn’s modified Ham’s F-12 (F-12K) medium (Sigma-Aldrich) containing NaHCO3 and HEPES buffered to pH 7. Cells were grown to confluence in T75 culture flasks in the presence of 10% fetal bovine serum (FBS; Gibco, Thermo Fisher Scientific, Waltham, MA, USA). HFL1 cells were subcultured using 0.05% trypsin at a ratio of 1:3. NIH/3T3 cells were cultured in Dulbecco’s Modified Eagle Medium (DMEM; HyClone, Thermo Fisher Scientific) containing 100 U/mL penicillin and 100 μg/mL streptomycin. Cells were grown to confluence in T75 culture flasks in the presence of 10% FBS. NIH/3T3 cells were subcultured using 0.05% trypsin/EDTA at a ratio of 1:3. All cells were maintained at 37 °C and 5% CO2, and growth medium was replenished every 3 days until experimentation. Cells were growth-arrested in serum-free medium for 48 h before experiments, and all experiments were performed under serum-free conditions using cells between passages 3 and 8.
Cells were seeded into 12-well culture plates at a density of 2.5 × 10^4 and when cultures reached 50% confluence, the culture medium was replaced with fresh serum-free F12K or serum-free DMEM/F12 for 48 h (growth arrest). […] Absorbance was measured at 450 nm wavelength using a Bio-Rad optical plate reader.

Take “VMPYISTTPAKPCTSENCGNSWYGGFKSKNENKIYFIN (disulfide 13-18 (inferred)) [AF38Pep]”: the pro-MMP9 gelatinase activity entry with pro-MMP9 was “suppressed activity levels”. For the same sequence, the ERK1/2 phosphorylation entry is “significantly suppressed” in series [1] (1 h) and “not prevented” in series [1] (12 h). Further, the “VCAM1–ITGA4 binding” value with VCAM1–ITGA4 interaction is “unaffected by cell treatments and remained at basal levels”. Moreover, the “OPN–ITGA4 binding” value with OPN–ITGA4 interaction is on record as “did not influence OPN–ITGA4 binding”. The “ITC interaction (thermogram)” value is “not between AF38Pep and FN-RGD or COL-RGD” in series [2]; “there was a detectable interaction between AF38Pep and FN-EDA” in series [3]. In series [4], the cytotoxicity/proliferation result was “did not interfere with cell proliferation nor incur cell death”.
